Laboratory results reported in publication PMC11012124, “Synthesis of Novel Triazine-Based Chalcones and 8,9-dihydro-7H-pyrimido[4,5-b][1,4]diazepines as Potential Leads in the Search of Anticancer, Antibacterial and Antifungal Agents” (International Journal of Molecular Sciences, 2024).

Legend:
60 cancer cell lines = test: NCI-60 one-dose screen (10 μM); format: cell-based; settings: Homo sapiens; one dose of 10 μM, mean over 60 cancer cell lines; read-out: Mean Growth Percent (MGP)
Text: Additionally, the mean of the growth percentages (MGP) of each compound against all the 60 cancer cell lines is also reported, which is used as one of the selection criteria to continue with tests at five concentration doses.

[1] = Hemolytic activity, spectrophotometric; format: cell-based, human; settings: human, human red blood cells (huRBC), 5% hematocrit, 200 μg/mL, 37 °C
RPMI-8226 = test: cells; settings: Homo sapiens, RPMI-8226, 48 h; for CC50: read-out: LC50
SR = test: cells; settings: Homo sapiens, 48 h; for CC50: read-out: LC50
HOP-62 = test: cells; settings: Homo sapiens, HOP-62, 48 h; for CC50: read-out: LC50
NCI-H226 = test: cells; settings: Homo sapiens, NCI-H226, 48 h; for CC50: read-out: LC50
NCI-H23 = test: cells; settings: Homo sapiens, NCI-H23, 48 h; for CC50: read-out: LC50
NCI-H322M = test: cells; settings: Homo sapiens, 48 h; for CC50: read-out: LC50
HCT-15 = test: cells; settings: Homo sapiens, HCT-15, 48 h; for CC50: read-out: LC50
SW-620 = test: cells; settings: Homo sapiens, SW-620, 48 h; for CC50: read-out: LC50
SF-295 = test: cells; settings: Homo sapiens, SF-295, 48 h; for CC50: read-out: LC50
MALME-3M = test: cells; settings: Homo sapiens, 48 h; for CC50: read-out: LC50
MDA-MB-435 = test: cells; settings: Homo sapiens, MDA-MB-435, 48 h; for CC50: read-out: LC50
IGROV1 = test: cells; settings: Homo sapiens, IGROV-1, 48 h; for CC50: read-out: LC50
OVCAR-4 = test: cells; settings: Homo sapiens, OVCAR-4, 48 h; for CC50: read-out: LC50
OVCAR-5 = test: cells; settings: Homo sapiens, OVCAR-5, 48 h; for CC50: read-out: LC50
OVCAR-8 = test: cells; settings: Homo sapiens, OVCAR-8, 48 h; for CC50: read-out: LC50
NCI/ADR-RES = test: cells; settings: Homo sapiens, 48 h; for CC50: read-out: LC50
SK-OV-3 = test: cells; settings: Homo sapiens, SK-OV-3, 48 h; for CC50: read-out: LC50
ACHN = test: cells; settings: Homo sapiens, 48 h; for CC50: read-out: LC50
TK-10 = test: cells; settings: Homo sapiens, TK-10, 48 h; for CC50: read-out: LC50
DU-145 = test: cells; settings: Homo sapiens, DU-145, 48 h; for CC50: read-out: LC50
MCF7 = test: cells; settings: Homo sapiens, MCF7, 48 h; for CC50: read-out: LC50
BT-549 = test: cells; settings: Homo sapiens, BT-549, 48 h; for CC50: read-out: LC50
RXF 393 = test: cells; settings: Homo sapiens, RXF 393, 48 h

## COc1cc(/C=C/C(=O)c2ccc(C)cc2)ccc1Oc1nc(Nc2ccc(F)cc2)nc(N(C)C)n1 [21b]
60 cancer cell lines
  activity at 10 µM: 39%
[1]
  hemolysis at 24 h, 200 µg/mL: 13%
RPMI-8226
  GI50: 3 µM
  CC50: > 100 µM
SR
  GI50: 3.25 µM
  CC50: > 100 µM
HOP-62
  GI50: 32.2 µM
  CC50: > 100 µM
NCI-H226
  GI50: 5.22 µM
  CC50: 49.1 µM
NCI-H23
  GI50: 5.52 µM
  CC50: > 100 µM
NCI-H322M
  GI50: 51.9 µM
  CC50: > 100 µM
HCT-15
  GI50: 4.73 µM
  CC50: 43.4 µM
SW-620
  GI50: 2.36 µM
  CC50: 20.1 µM
SF-295
  GI50: 8.61 µM
  CC50: > 100 µM
MALME-3M
  GI50: 15.4 µM
  CC50: 72.3 µM
MDA-MB-435
  GI50: 11.4 µM
  CC50: 70.4 µM
IGROV1
  GI50: 13.8 µM
  CC50: 99.1 µM
OVCAR-4
  GI50: 7.94 µM
  CC50: > 100 µM
OVCAR-5
  GI50: 16.5 µM
  CC50: > 100 µM
OVCAR-8
  GI50: 7.19 µM
  CC50: > 100 µM
NCI/ADR-RES
  GI50: 5.97 µM
  CC50: > 100 µM
SK-OV-3
  GI50: 48.9 µM
  CC50: > 100 µM
ACHN
  GI50: 9.58 µM
  CC50: 96.5 µM
TK-10
  GI50: 18.2 µM
  CC50: > 100 µM
DU-145
  GI50: 25.8 µM
  CC50: > 100 µM
MCF7
  GI50: 3.57 µM
  CC50: > 100 µM
BT-549
  GI50: 6.27 µM
  CC50: 91.3 µM

## COc1cc(/C=C/C(=O)c2cc(OC)c(OC)c(OC)c2)ccc1Oc1nc(NCCO)nc(N2CCOCC2)n1 [20d]
60 cancer cell lines
  activity at 10 µM: 0.79%
[1]
  hemolysis at 24 h, 200 µg/mL: 1.2%
RPMI-8226
  GI50: 1.63 µM
  CC50: > 100 µM
SR
  GI50: 0.784 µM
  CC50: > 100 µM
HOP-62
  GI50: 2.35 µM
  CC50: 22.4 µM
NCI-H226
  GI50: 3.69 µM
  CC50: > 100 µM
NCI-H23
  GI50: 1.99 µM
  CC50: 17.5 µM
NCI-H322M
  GI50: 2.91 µM
  CC50: 29.3 µM
HCT-15
  GI50: 1.6 µM
  CC50: 10.2 µM
SW-620
  GI50: 2.24 µM
  CC50: 26.4 µM
SF-295
  GI50: 2.9 µM
  CC50: 35.2 µM
MALME-3M
  GI50: 2.67 µM
  CC50: 24.3 µM
MDA-MB-435
  GI50: 3.1 µM
  CC50: 35.1 µM
IGROV1
  GI50: 2.45 µM
  CC50: 26.2 µM
OVCAR-4
  GI50: 2.92 µM
  CC50: 33.4 µM
OVCAR-5
  GI50: 3.14 µM
  CC50: 38.4 µM
OVCAR-8
  GI50: 2.56 µM
  CC50: 34.7 µM
NCI/ADR-RES
  GI50: 4.72 µM
  CC50: 95.9 µM
SK-OV-3
  GI50: 2.44 µM
  CC50: 22 µM
ACHN
  GI50: 1.64 µM
  CC50: 7.9 µM
RXF 393
  GI50: 1.75 µM
RXF 393; read-out: LC50
  CC50: 6.94 µM
TK-10
  GI50: 3.12 µM
  CC50: 30.6 µM
DU-145
  GI50: 2.99 µM
  CC50: 35.3 µM
MCF7
  GI50: 1.72 µM
  CC50: 61.5 µM
BT-549
  GI50: 1.6 µM
  CC50: 6.88 µM
